In patent US7763267B2, “Versatile high load concentrate compositions for control of ecto- parasites” (Wyeth LLC, priority 2005, dated 2010):

System: biting lice
Test: Effect of metaflumizone body spray on biting lice of sheep
Format: in vivo
Settings: 10 mg/kg as body spray (1500 ml/animal), vs untreated control lice/animal
Experimental: 12.59 grams of metaflumizone is added to dimethyl isosorbide using mild heating (approximately 40° C.). To this solution is added 109.92 grams Cremophor® EL (polyethoxylated castor oil, sold by Basf Aktiengesellschaft), with stirring, followed by q.s. 200 ml 1-methoxy-2-propyl acetate The resultant solution is stored until ready for use, whereupon it can be diluted with water for use as a spray (17 ml of concentrate diluted to 3500 ml with water), or with water for use as a feed/water additive (in approximately the same ratio).
This formulation was diluted with water to a metaflumizone concentration of 10 mg/kg bodyweight, and applied to sheep at 1500 ml/animal to test the effect of metaflumizone on biting lice

Measured: % Efficacy

N#Cc1ccc(CC(=NNC(=O)Nc2ccc(OC(F)(F)F)cc2)c2cccc(C(F)(F)F)c2)cc1 [metaflumizone, (E Z)-2-[2-(4-cyanophenyl)-1-[3-(trifluoromethyl)phenyl]ethylidene]-N-[4-(trifluoromethoxy)phenyl]hydrazinecarboxamide]
100%: 7 days after treatment | 14 days after treatment | 21 days after treatment | 28 days after treatment
